Laboratory results as given in patent publication US20040259775A1, “Conformationally constrained peptides that bind the ORL-1 receptor” (EURO-CELTIQUE S.A., priority 2002, published 2004).

Experiments:
[1] = target: T1, human ORL-1 receptor (Homo sapiens, UniProt P41146); assay: [35S]GTPγS functional assay with ORL-1 receptor membranes; format: biochemical; settings: for Emax: [35S]GTPγS functional assay, NC = 100
T1 construct: host or cells: recombinant HEK-293 cells
Protocol: Filter plates were subsequently dried at 50° C. for 2-3 hours. […] 3.0.

[2] = target: human opioid receptor-like (ORL-1) receptor (Homo sapiens, UniProt P41146); format: binding
Chain of human opioid receptor-like (ORL-1) receptor (P41146 whole entry): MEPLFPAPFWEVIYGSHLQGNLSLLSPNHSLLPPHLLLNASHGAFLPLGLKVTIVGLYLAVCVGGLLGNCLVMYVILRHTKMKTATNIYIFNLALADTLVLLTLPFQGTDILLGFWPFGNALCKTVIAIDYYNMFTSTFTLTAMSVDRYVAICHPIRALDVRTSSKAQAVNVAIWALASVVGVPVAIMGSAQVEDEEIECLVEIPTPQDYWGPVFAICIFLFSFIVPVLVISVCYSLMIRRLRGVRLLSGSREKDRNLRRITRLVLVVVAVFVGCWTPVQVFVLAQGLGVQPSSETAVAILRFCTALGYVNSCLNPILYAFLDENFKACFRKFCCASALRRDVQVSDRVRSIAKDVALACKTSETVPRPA

T1 sequence (P41146 whole entry): as above

Row | Structure (SMILES) | Emax [1] [%] | affinity compared with NC [2] | agonist character at ORL-1 ([1]; functional assay, in words) | potency compared with NC ([1]; in words)
1 | CC(C)C[C@H](NC(=O)[C@H](CCCCN)NC(=O)[C@H](CCCNC(=N)N)NC(=O)[C@H](C)NC(=O)[C@H](CO)NC(=O)[C@H](CCCCN)NC(=O)[C@H](CCCNC(=N)N)NC(=O)C(C)(C)NC(=O)CNC(=O)[C@@H](NC(=O)[C@H](Cc1ccccc1)NC(=O)CNC(=O)CNC(=O)[C@@H](N)Cc1ccccc1)[C@@H](C)O)C(=O)N[C@@H](C)C(=O)N[C@@H](CC(N)=O)C(=O)N[C@@H](CCC(N)=O)C(=O)O [I] | 97 | – | – | –
2 | CC(C)C[C@H](NC(=O)[C@H](CCCCN)NC(=O)[C@H](CCCNC(=N)N)NC(=O)C(C)(C)NC(=O)[C@H](CO)NC(=O)[C@H](CCCCN)NC(=O)[C@H](CCCNC(=N)N)NC(=O)C(C)(C)NC(=O)CNC(=O)[C@@H](NC(=O)[C@H](Cc1ccccc1)NC(=O)CNC(=O)CNC(=O)[C@@H](N)Cc1ccccc1)[C@@H](C)O)C(=O)N[C@@H](C)C(=O)N[C@@H](CC(N)=O)C(=O)N[C@@H](CCC(N)=O)C(N)=O [VIIA, FGGFTG(AIB)RKS(AIB)RKLANQ-NH2] | 90 | significantly higher affinity | efficacious agonist | more potent
3 | CC(C)C[C@H](NC(=O)[C@H](CCCCN)NC(=O)[C@H](CCCNC(=N)N)NC(=O)[C@H](C)NC(=O)[C@H](CO)NC(=O)[C@H](CCCCN)NC(=O)[C@H](CCCNC(=N)N)NC(=O)[C@H](C)NC(=O)CNC(=O)[C@@H](NC(=O)[C@H](Cc1ccccc1)NC(=O)CNC(=O)CNC(=O)[C@@H](N)Cc1ccccc1)[C@@H](C)O)C(=O)NC(C)(C)C(=O)N[C@@H](CC(N)=O)C(=O)N[C@@H](CCC(N)=O)C(N)=O [IIIA] | 97 | – | – | –
4 | CC(C)C[C@H](NC(=O)[C@H](CCCCN)NC(=O)[C@H](CCCNC(=N)N)NC(=O)[C@H](C)NC(=O)[C@H](CO)NC(=O)[C@H](CCCCN)NC(=O)[C@H](CCCNC(=N)N)NC(=O)[C@H](C)NC(=O)CNC(=O)[C@@H](NC(=O)[C@H](Cc1ccccc1)NC(=O)CNC(=O)CNC(=O)[C@@H](N)Cc1ccccc1)[C@@H](C)O)C(=O)NC(C)(C)C(=O)N[C@@H](CC(N)=O)C(=O)N[C@@H](CCC(N)=O)C(=O)O [III] | 91 | – | – | –
5 | CC(C)C[C@H](NC(=O)[C@H](CCCCN)NC(=O)[C@H](CCCNC(=N)N)NC(=O)C(C)(C)NC(=O)[C@H](CO)NC(=O)[C@H](CCCCN)NC(=O)[C@H](CCCNC(=N)N)NC(=O)[C@H](C)NC(=O)CNC(=O)[C@@H](NC(=O)[C@H](Cc1ccccc1)NC(=O)CNC(=O)CNC(=O)[C@@H](N)Cc1ccccc1)[C@@H](C)O)C(=O)N[C@@H](C)C(=O)N[C@@H](CC(N)=O)C(=O)N[C@@H](CCC(N)=O)C(=O)O [II] | 96 | – | – | –
6 | CC(C)C[C@H](NC(=O)[C@H](CCCCN)NC(=O)[C@H](CCCNC(=N)N)NC(=O)C(C)(C)NC(=O)[C@H](CO)NC(=O)[C@H](CCCCN)NC(=O)[C@H](CCCNC(=N)N)NC(=O)[C@H](C)NC(=O)CNC(=O)[C@@H](NC(=O)[C@H](Cc1ccccc1)NC(=O)CNC(=O)CNC(=O)[C@@H](N)Cc1ccccc1)[C@@H](C)O)C(=O)N[C@@H](C)C(=O)N[C@@H](CC(N)=O)C(=O)N[C@@H](CCC(N)=O)C(N)=O [IIA] | 82 | – | – | –
7 | CC(C)C[C@H](NC(=O)[C@H](CCCCN)NC(=O)[C@H](CCCNC(=N)N)NC(=O)[C@H](C)NC(=O)[C@H](CO)NC(=O)[C@H](CCCCN)NC(=O)[C@H](CCCNC(=N)N)NC(=O)C(C)(C)NC(=O)CNC(=O)[C@@H](NC(=O)[C@H](Cc1ccccc1)NC(=O)CNC(=O)CNC(=O)[C@@H](N)Cc1ccccc1)[C@@H](C)O)C(=O)N[C@@H](C)C(=O)N[C@@H](CC(N)=O)C(=O)N[C@@H](CCC(N)=O)C(N)=O [IA] | 82 | – | – | –
